Laboratory results as given in PubChem BioAssay (NCI).
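Grown in 96-well plates, cells were treated for 48 hours with each compound at five concentrations. Insufficient inhibition: endpoint recorded as highest concentration tested. TGI marks complete inhibition of growth.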 Active and inactive are the calls of the source. Rule as the data show it: active = GI50 below about 0.43 µM; inactive = the rest.

What was measured:
Assay in all cases: NCI tumour cell line growth inhibition, 48 h
MOLT-4 leukemia = test system: MOLT-4 leukemia
MDA-MB-231 breast = test system: MDA-MB-231 breast
EKVX NSCLC = test system: EKVX NSCLC
MDA-N = test system: MDA-N
UO-31 renal = test system: UO-31 renal
K-562 leukemia = test system: K-562 leukemia
CAKI-1 renal = test system: CAKI-1 renal
HCT-116 colon = test system: HCT-116 colon
UACC-62 melanoma = test system: UACC-62 melanoma
SK-MEL-28 melanoma = test system: SK-MEL-28 melanoma
NCI-H226 lung = test system: NCI-H226 lung
HCC-2998 colon = test system: HCC-2998 colon
MALME-3M melanoma = test system: MALME-3M melanoma
LOX IMVI melanoma = test system: LOX IMVI melanoma
SN12C renal = test system: SN12C renal
SK-OV-3 ovarian = test system: SK-OV-3 ovarian
SNB-75 CNS = test system: SNB-75 CNS
T-47D breast = test system: T-47D breast
HL-60(TB) leukemia = test system: HL-60(TB) leukemia
HT29 colon = test system: HT29 colon
OVCAR-3 ovarian = test system: OVCAR-3 ovarian
CCRF-CEM leukemia = test system: CCRF-CEM leukemia
IGROV1 ovarian = test system: IGROV1 ovarian
NCI-H23 lung = test system: NCI-H23 lung
U251 CNS = test system: U251 CNS
NCI-H522 lung = test system: NCI-H522 lung
SW-620 colon = test system: SW-620 colon
SK-MEL-5 melanoma = test system: SK-MEL-5 melanoma
UACC-257 melanoma = test system: UACC-257 melanoma
MDA-MB-435 = test system: MDA-MB-435
RPMI-8226 leukemia = test system: RPMI-8226 leukemia
TK-10 renal = test system: TK-10 renal
NCI/ADR-RES ovarian = test system: NCI/ADR-RES ovarian
COLO 205 colon = test system: COLO 205 colon
OVCAR-8 ovarian = test system: OVCAR-8 ovarian
DU-145 prostate = test system: DU-145 prostate
M14 melanoma = test system: M14 melanoma
HCT-15 colon = test system: HCT-15 colon
MCF7 breast = test system: MCF7 breast
RXF 393 renal = test system: RXF 393 renal
SF-268 CNS = test system: SF-268 CNS
SF-539 CNS = test system: SF-539 CNS
PC-3 prostate = test system: PC-3 prostate
BT-549 breast = test system: BT-549 breast
SR leukemia = test system: SR leukemia
A549 NSCLC = test system: A549 NSCLC
OVCAR-5 ovarian = test system: OVCAR-5 ovarian
SF-295 CNS = test system: SF-295 CNS
HOP-62 NSCLC = test system: HOP-62 NSCLC
SNB-19 CNS = test system: SNB-19 CNS
KM12 colon = test system: KM12 colon
786-0 renal = test system: 786-0 renal
ACHN renal = test system: ACHN renal
SK-MEL-2 melanoma = test system: SK-MEL-2 melanoma
NCI-H460 lung = test system: NCI-H460 lung
A498 renal = test system: A498 renal
OVCAR-4 ovarian = test system: OVCAR-4 ovarian
HS 578T breast = test system: HS 578T breast

C=CCN(Cc1ccncc1)C(=O)C(O)(c1ccccc1)c1ccccc1
TGI (MOLT-4 leukemia): > 100 µM
TGI (MDA-MB-231 breast): > 100 µM
TGI (EKVX NSCLC): > 100 µM
TGI (MDA-N): > 100 µM
TGI (UO-31 renal): 56.5 µM
TGI (K-562 leukemia): > 100 µM
TGI (CAKI-1 renal): > 100 µM
TGI (HCT-116 colon): > 100 µM
TGI (UACC-62 melanoma): > 100 µM
TGI (SK-MEL-28 melanoma): > 100 µM
TGI (NCI-H226 lung): > 100 µM
TGI (HCC-2998 colon): > 100 µM
TGI (MALME-3M melanoma): > 100 µM
TGI (LOX IMVI melanoma): > 100 µM
TGI (SN12C renal): > 100 µM
TGI (SK-OV-3 ovarian): > 100 µM
TGI (SNB-75 CNS): > 100 µM
TGI (T-47D breast): > 100 µM
TGI (HL-60(TB) leukemia): > 100 µM
TGI (HT29 colon): > 100 µM
TGI (OVCAR-3 ovarian): > 100 µM
TGI (CCRF-CEM leukemia): > 100 µM
TGI (IGROV1 ovarian): > 100 µM
TGI (NCI-H23 lung): > 100 µM
TGI (U251 CNS): > 100 µM
TGI (NCI-H522 lung): > 100 µM
TGI (SW-620 colon): > 100 µM
TGI (SK-MEL-5 melanoma): > 100 µM
TGI (UACC-257 melanoma): > 100 µM
TGI (MDA-MB-435): > 100 µM
TGI (RPMI-8226 leukemia): 78.6 µM
TGI (TK-10 renal): > 100 µM
TGI (NCI/ADR-RES ovarian): 37.4 µM
TGI (COLO 205 colon): > 100 µM
TGI (OVCAR-8 ovarian): > 100 µM
TGI (DU-145 prostate): > 100 µM
TGI (M14 melanoma): > 100 µM
TGI (HCT-15 colon): > 100 µM
TGI (MCF7 breast): > 100 µM
TGI (RXF 393 renal): > 100 µM
TGI (SF-268 CNS): > 100 µM
TGI (SF-539 CNS): > 100 µM
TGI (PC-3 prostate): > 100 µM
TGI (BT-549 breast): > 100 µM
TGI (SR leukemia): > 100 µM
TGI (A549 NSCLC): > 100 µM
TGI (OVCAR-5 ovarian): > 100 µM
TGI (SF-295 CNS): > 100 µM
TGI (HOP-62 NSCLC): > 100 µM
TGI (SNB-19 CNS): > 100 µM
TGI (KM12 colon): > 100 µM
TGI (786-0 renal): > 100 µM
TGI (ACHN renal): > 100 µM

C[C@H](N)C(O)C/C=C\CC(O)/C=C/C=C\C/C=C\C/C=C\C/C=C\CCCCCCC(O)[C@H](C)N (stereo partly drawn)
outcome (MOLT-4 leukemia): inactive
outcome (MDA-MB-231 breast): inactive
outcome (EKVX NSCLC): inactive
outcome (MDA-N): inactive
outcome (UO-31 renal): inactive
outcome (K-562 leukemia): inactive
outcome (SK-MEL-2 melanoma): inactive
outcome (CAKI-1 renal): inactive
outcome (HCT-116 colon): inactive
outcome (UACC-62 melanoma): inactive
outcome (SK-MEL-28 melanoma): inactive
outcome (NCI-H226 lung): inactive
outcome (HCC-2998 colon): inactive
outcome (NCI-H460 lung): inactive
outcome (MALME-3M melanoma): inactive
outcome (LOX IMVI melanoma): inactive
outcome (SN12C renal): inactive
outcome (SK-OV-3 ovarian): inactive
outcome (SNB-75 CNS): inactive
outcome (T-47D breast): inactive
outcome (HL-60(TB) leukemia): inactive
outcome (HT29 colon): inactive
outcome (OVCAR-3 ovarian): inactive
outcome (A498 renal): inactive
outcome (OVCAR-4 ovarian): inactive
outcome (CCRF-CEM leukemia): inactive
outcome (NCI-H23 lung): inactive
outcome (U251 CNS): inactive
outcome (NCI-H522 lung): inactive
outcome (SW-620 colon): inactive
outcome (UACC-257 melanoma): inactive
outcome (MDA-MB-435): inactive
outcome (RPMI-8226 leukemia): inactive
outcome (TK-10 renal): inactive
outcome (COLO 205 colon): inactive
outcome (OVCAR-8 ovarian): inactive
outcome (DU-145 prostate): inactive
outcome (M14 melanoma): inactive
outcome (HS 578T breast): inactive
outcome (HCT-15 colon): inactive
outcome (MCF7 breast): inactive
outcome (RXF 393 renal): inactive
outcome (SF-268 CNS): inactive
outcome (SF-539 CNS): inactive
outcome (PC-3 prostate): inactive
outcome (BT-549 breast): inactive
outcome (SR leukemia): inactive
outcome (OVCAR-5 ovarian): inactive
outcome (SF-295 CNS): inactive
outcome (HOP-62 NSCLC): inactive
outcome (SNB-19 CNS): inactive
outcome (KM12 colon): inactive
outcome (786-0 renal): inactive
outcome (ACHN renal): inactive

N#CC[C@@H](O)COc1ccccc1
TGI (MOLT-4 leukemia): > 100 µM
TGI (MDA-MB-231 breast): > 100 µM
TGI (EKVX NSCLC): > 100 µM
TGI (MDA-N): > 100 µM
TGI (UO-31 renal): > 100 µM
TGI (K-562 leukemia): > 100 µM
TGI (SK-MEL-2 melanoma): > 100 µM
TGI (CAKI-1 renal): > 100 µM
TGI (HCT-116 colon): > 100 µM
TGI (UACC-62 melanoma): > 100 µM
TGI (SK-MEL-28 melanoma): > 100 µM
TGI (NCI-H226 lung): > 100 µM
TGI (HCC-2998 colon): > 100 µM
TGI (NCI-H460 lung): > 100 µM
TGI (MALME-3M melanoma): > 100 µM
TGI (LOX IMVI melanoma): > 100 µM
TGI (SN12C renal): > 100 µM
TGI (SK-OV-3 ovarian): > 100 µM
TGI (SNB-75 CNS): > 100 µM
TGI (T-47D breast): > 100 µM
TGI (HL-60(TB) leukemia): > 100 µM
TGI (HT29 colon): > 100 µM
TGI (OVCAR-3 ovarian): > 100 µM
TGI (A498 renal): > 100 µM
TGI (OVCAR-4 ovarian): > 100 µM
TGI (CCRF-CEM leukemia): > 100 µM
TGI (NCI-H23 lung): > 100 µM
TGI (U251 CNS): > 100 µM
TGI (NCI-H522 lung): > 100 µM
TGI (SW-620 colon): > 100 µM
TGI (SK-MEL-5 melanoma): > 100 µM
TGI (UACC-257 melanoma): > 100 µM
TGI (MDA-MB-435): > 100 µM
TGI (RPMI-8226 leukemia): > 100 µM
TGI (TK-10 renal): > 100 µM
TGI (COLO 205 colon): > 100 µM
TGI (OVCAR-8 ovarian): > 100 µM
TGI (DU-145 prostate): > 100 µM
TGI (M14 melanoma): > 100 µM
TGI (HS 578T breast): > 100 µM
TGI (HCT-15 colon): > 100 µM
TGI (MCF7 breast): > 100 µM
TGI (RXF 393 renal): > 100 µM
TGI (SF-268 CNS): > 100 µM
TGI (SF-539 CNS): > 100 µM
TGI (PC-3 prostate): > 100 µM
TGI (BT-549 breast): > 100 µM
TGI (SR leukemia): > 100 µM
TGI (A549 NSCLC): > 100 µM
TGI (OVCAR-5 ovarian): > 100 µM
TGI (SF-295 CNS): > 100 µM
TGI (HOP-62 NSCLC): > 100 µM
TGI (SNB-19 CNS): > 100 µM
TGI (KM12 colon): > 100 µM
TGI (786-0 renal): > 100 µM
TGI (ACHN renal): > 100 µM
